Measurements taken from PMC9573696, “Experimental Examination of Solubility and Lipophilicity as Pharmaceutically Relevant Points of Novel Bioactive Hybrid Compounds” (Molecules, 2022).
Values after ≈ are worked out from the molar mass of the structure shown.

Legend:
[1] = Equilibrium (thermodynamic) solubility, shake-flask method; format: physicochemical; settings: for Solubility S × 10^3 / Solubility x × 10^3 / Solubility x × 10^5 / Solubility S × 10^4 / Solubility x × 10^6 / Solubility x × 10^4: amorphous state; for solubility at 2 days: 25 °C, organic solvent or mixture, thermodynamic from solid, 1-octanol, text values match 298.15 K, read-out: Solubility S in the alcohol (1-octanol); for Solubility S × 10^4 / Solubility x × 10^6: Buffer pH 7.4
Text: The experimental solubility values of hybrids in the selected solvents within the temperature range of 293.15–313.15 K expressed in molarity are summarized in Table 2. The comparative analysis of the reference values of the solubility of compounds I–III at the standard temperature of 298.15 K is given as a histogram in Figure 3.
Shake-flask method as “gold standard” was used for determination thermodynamic solubility synthesized compounds in buffer solutions (pH 2.0 and 7.4) and 1-octanol in the temperature range of 293.15–313.15 K with a step of 5 degrees at atmospheric pressure. Excessive amounts of compound were added to glass vials c 12 mL of selected solvent. The heterogeneous system is closed with a lid and vigorously stirred at the selected temperature in an air thermostat with a stirring device until the solubility equilibrium has been reached. The time required for establishing a constant value of the solution concentration was determined from the solubility kinetic dependences and averaged 2 days. The equilibrated solutions were first survived to aim sedimentation of solid phase during 10 h, then centrifuged at 20,000 rpm for 30 min at specific temperatures, and then quickly filtered using a syringe equipped with a hydrophilic filter Millex-GV 0.22 µm (Ireland). Concentration of saturated solution was measured using spectrophotometer Cary-50 (Varian, USA) with an accuracy of 2–4%. The absorbances of compounds studied were measured at wavelengths 332 and 334 nm in buffer solutions and 1-octanol, respectively. If necessary, an aliquot was diluted with an appropriate solvent. The final pH of the saturated buffers was monitored. The solubility of compounds in each solvent was determined by repeating the procedure three times.
Mole fraction concentration was calculated from solubility value S expressed in mol∙L^−1 using Equation (10):(10) x=M2S/S(M2−M1)+1000ρ, where M1 and M2 are the molar masses of solute and solvent, respectively, and ρ (g∙cm^−3) is the density of the pure solvents. The mole fraction solubilities for buffer solutions were calculated taking into account the buffer compositions. The used values of densities are given in Table S6 in Supplementary Material.

[2] = Apparent thermodynamic functions of dissolution (van't Hoff); format: physicochemical; settings: Thm = 302.98 K
Text: The dissolution of the new hybrids was characterized based on apparent thermodynamic parameters obtained from temperature dependences of solubility of the studied compounds in the selected solvents (Figure 6). […] The van’t Hoff enthalpy of dissolution can be expressed as the inclination of a tangent to a solubility curve plotted as lnx vs. (1/T − 1/Thm) by Equation (6): (6) ΔHsolo=−R(∂lnx/∂(1/T−1/Thm))=−R⋅slope where R = 8.314 J⋅K^−1·mol^−1 is the universal gas constant. Thm = 302.98 K denotes the mean harmonic temperature, which was calculated by Equation (7):(7) Thm=n/∑i=1n1/Ti where n represented the number of experimental temperatures. The apparent standard Gibbs energy was evaluated by Equation (8):(8) ΔGsolo=−RThm×intersept
The apparent standard solution entropies were obtained from the well-known relationship:(9) ΔSsolo=ΔHsolo−ΔGsolo/Thm
The calculated apparent thermodynamic solubility functions of dissolution (Gibbs energy, enthalpy, and entropy) at standard temperature 298.15 K for hybrid compounds were collected in Table 4.

Cc1ccc(-n2c(=S)sc3c(=O)n(CCCN4CCN(CC(O)(Cn5cncn5)c5ccc(F)cc5F)CC4)cnc32)cc1 (centres unmarked) [I, 6-[3-[4-[2-(2,4-difluorophenyl)-2-hydroxy-3-(1H-1,2,4-triazol-1-yl)propyl]-1-piperazinyl]propyl]-2,3-dihydro-3-(4-methylphenyl)-2-thioxo-thiazolo[4,5-d]pyrimidin-7(6H)-one]
Solubility S × 10^3 ([1]; 1-Octanol, 293.15 K): 7.0781 mol∙L^−1 (printed as S × 10^3) | Solubility x × 10^3 ([1]; 1-Octanol, 293.15 K): 1.1199 mol. frac. (printed as x × 10^ | Solubility S × 10^3 ([1]; 1-Octanol, 298.15 K): 7.5389 mol∙L^−1 (printed as S × 10^3) | Solubility x × 10^3 ([1]; 1-Octanol, 298.15 K): 1.1981 mol. frac. (printed as x × 10^ | Solubility S × 10^3 ([1]; 1-Octanol, 303.15 K): 8.0826 mol∙L^−1 (printed as S × 10^3) | Solubility x × 10^3 ([1]; 1-Octanol, 303.15 K): 1.2903 mol. frac. (printed as x × 10^ | Solubility S × 10^3 ([1]; 1-Octanol, 308.15 K): 8.6264 mol∙L^−1 (printed as S × 10^3) | Solubility x × 10^3 ([1]; 1-Octanol, 308.15 K): 1.3835 mol. frac. (printed as x × 10^ | Solubility S × 10^3 ([1]; 1-Octanol, 313.15 K): 9.2070 mol∙L^−1 (printed as S × 10^3) | Solubility x × 10^3 ([1]; 1-Octanol, 313.15 K): 1.4834 mol. frac. (printed as x × 10^ | solubility at 2 days [1]: 7.54 mM (≈ 4820 µg/mL) | Solubility S × 10^3 ([1]; Buffer pH 2.0, 293.15 K): 1.8307 mol∙L^−1 (printed as S × 10^3) | Solubility x × 10^5 ([1]; Buffer pH 2.0, 293.15 K): 3.3040 mol. frac. (printed as x × 10^ | Solubility S × 10^3 ([1]; Buffer pH 2.0, 298.15 K): 1.9773 mol∙L^−1 (printed as S × 10^3) | Solubility x × 10^5 ([1]; Buffer pH 2.0, 298.15 K): 3.5732 mol. frac. (printed as x × 10^ | Solubility S × 10^3 ([1]; Buffer pH 2.0, 303.15 K): 2.1311 mol∙L^−1 (printed as S × 10^3) | Solubility x × 10^5 ([1]; Buffer pH 2.0, 303.15 K): 3.8570 mol. frac. (printed as x × 10^ | Solubility S × 10^3 ([1]; Buffer pH 2.0, 308.15 K): 2.3027 mol∙L^−1 (printed as S × 10^3) | Solubility x × 10^5 ([1]; Buffer pH 2.0, 308.15 K): 4.1749 mol. frac. (printed as x × 10^ | Solubility S × 10^3 ([1]; Buffer pH 2.0, 313.15 K): 2.4851 mol∙L^−1 (printed as S × 10^3) | Solubility x × 10^5 ([1]; Buffer pH 2.0, 313.15 K): 4.5144 mol. frac. (printed as x × 10^ | Solubility S × 10^4 ([1]; 293.15 K): 1.1295 mol∙L^−1 (printed as S × 10^4) | Solubility x × 10^6 ([1]; 293.15 K): 2.0541 mol. frac. (printed as x × 10^ | Solubility S × 10^4 ([1]; 298.15 K): 1.2441 mol∙L^−1 (printed as S × 10^4) | Solubility x × 10^6 ([1]; 298.15 K): 2.2653 mol. frac. (printed as x × 10^ | Solubility S × 10^4 ([1]; 303.15 K): 1.3510 mol∙L^−1 (printed as S × 10^4) | Solubility x × 10^6 ([1]; 303.15 K): 2.4636 mol. frac. (printed as x × 10^ | Solubility S × 10^4 ([1]; 308.15 K): 1.4682 mol∙L^−1 (printed as S × 10^4) | Solubility x × 10^6 ([1]; 308.15 K): 2.6820 mol. frac. (printed as x × 10^ | Solubility S × 10^4 ([1]; 313.15 K): 1.5920 mol∙L^−1 (printed as S × 10^4) | Solubility x × 10^6 ([1]; 313.15 K): 2.9135 mol. frac. (printed as x × 10^ | TΔSsolo ([2]; 1-Octanol): -1.48 kcal/mol | ΔGsolo ([2]; 1-Octanol): 4.02 ± 0.048 kcal/mol | ΔHsolo ([2]; 1-Octanol): 2.53 ± 0.048 kcal/mol | ΔSsolo ([2]; 1-Octanol): −20.8 ± 1.1 J·mol^−1·K^−1 | TΔSsolo ([2]; Buffer pH 2.0): -3.23 kcal/mol | ΔGsolo ([2]; Buffer pH 2.0): 6.07 ± 0.12 kcal/mol | ΔHsolo ([2]; Buffer pH 2.0): 2.84 ± 0.024 kcal/mol | ΔSsolo ([2]; Buffer pH 2.0): −45.2 ± 2.4 J·mol^−1·K^−1 | TΔSsolo ([2]; Buffer pH 7.4): -4.54 kcal/mol | ΔGsolo ([2]; Buffer pH 7.4): 7.7 ± 0.14 kcal/mol | ΔHsolo ([2]; Buffer pH 7.4): 3.15 ± 0.024 kcal/mol | ΔSsolo ([2]; Buffer pH 7.4): −63.6 ± 4.1 J·mol^−1·K^−1

O=c1c2sc(=S)n(-c3ccc(F)cc3)c2ncn1CCCN1CCN(CC(O)(Cn2cncn2)c2ccc(F)cc2F)CC1 (centres unmarked) [II, 6-[3-[4-[2-(2,4-difluorophenyl)-2-hydroxy-3-(1H-1,2,4-triazol-1-yl)propyl]-1-piperazinyl]propyl]-2,3-dihydro-3-(4-fluorophenyl)-2-thioxo-thiazolo[4,5-d]pyrimidin-7(6H)-one]
Solubility S × 10^3 ([1]; 1-Octanol, 293.15 K): 5.3994 mol∙L^−1 (printed as S × 10^3) | Solubility x × 10^4 ([1]; 1-Octanol, 293.15 K): 8.5358 mol. frac. (printed as x × 10^ | Solubility S × 10^3 ([1]; 1-Octanol, 298.15 K): 5.6703 mol∙L^−1 (printed as S × 10^3) | Solubility x × 10^4 ([1]; 1-Octanol, 298.15 K): 9.0027 mol. frac. (printed as x × 10^ | Solubility S × 10^3 ([1]; 1-Octanol, 303.15 K): 5.8834 mol∙L^−1 (printed as S × 10^3) | Solubility x × 10^4 ([1]; 1-Octanol, 303.15 K): 9.3813 mol. frac. (printed as x × 10^ | Solubility S × 10^3 ([1]; 1-Octanol, 308.15 K): 6.1187 mol∙L^−1 (printed as S × 10^3) | Solubility x × 10^4 ([1]; 1-Octanol, 308.15 K): 9.8001 mol. frac. (printed as x × 10^ | Solubility S × 10^3 ([1]; 1-Octanol, 313.15 K): 6.3807 mol∙L^−1 (printed as S × 10^3) | Solubility x × 10^4 ([1]; 1-Octanol, 313.15 K): 10.2644 mol. frac. (printed as x × 10^ | solubility at 2 days [1]: 5.67 mM (≈ 3640 µg/mL) | Solubility S × 10^3 ([1]; Buffer pH 2.0, 293.15 K): 1.0755 mol∙L^−1 (printed as S × 10^3) | Solubility x × 10^5 ([1]; Buffer pH 2.0, 293.15 K): 1.9402 mol. frac. (printed as x × 10^ | Solubility S × 10^3 ([1]; Buffer pH 2.0, 298.15 K): 1.2330 mol∙L^−1 (printed as S × 10^3) | Solubility x × 10^5 ([1]; Buffer pH 2.0, 298.15 K): 2.2272 mol. frac. (printed as x × 10^ | Solubility S × 10^3 ([1]; Buffer pH 2.0, 303.15 K): 1.4273 mol∙L^−1 (printed as S × 10^3) | Solubility x × 10^5 ([1]; Buffer pH 2.0, 303.15 K): 2.5822 mol. frac. (printed as x × 10^ | Solubility S × 10^3 ([1]; Buffer pH 2.0, 308.15 K): 1.6250 mol∙L^−1 (printed as S × 10^3) | Solubility x × 10^5 ([1]; Buffer pH 2.0, 308.15 K): 2.9451 mol. frac. (printed as x × 10^ | Solubility S × 10^3 ([1]; Buffer pH 2.0, 313.15 K): 1.8394 mol∙L^−1 (printed as S × 10^3) | Solubility x × 10^5 ([1]; Buffer pH 2.0, 313.15 K): 3.3404 mol. frac. (printed as x × 10^ | Solubility S × 10^4 ([1]; 293.15 K): 3.0126 mol∙L^−1 (printed as S × 10^4) | Solubility x × 10^6 ([1]; 293.15 K): 5.4794 mol. frac. (printed as x × 10^ | Solubility S × 10^4 ([1]; 298.15 K): 3.1917 mol∙L^−1 (printed as S × 10^4) | Solubility x × 10^6 ([1]; 298.15 K): 5.8122 mol. frac. (printed as x × 10^ | Solubility S × 10^4 ([1]; 303.15 K): 3.3788 mol∙L^−1 (printed as S × 10^4) | Solubility x × 10^6 ([1]; 303.15 K): 6.1623 mol. frac. (printed as x × 10^ | Solubility S × 10^4 ([1]; 308.15 K): 3.5539 mol∙L^−1 (printed as S × 10^4) | Solubility x × 10^6 ([1]; 308.15 K): 6.4929 mol. frac. (printed as x × 10^ | Solubility S × 10^4 ([1]; 313.15 K): 3.7469 mol∙L^−1 (printed as S × 10^4) | Solubility x × 10^6 ([1]; 313.15 K): 6.8581 mol. frac. (printed as x × 10^ | TΔSsolo ([2]; 1-Octanol): -2.49 kcal/mol | ΔGsolo ([2]; 1-Octanol): 4.16 ± 0.072 kcal/mol | ΔHsolo ([2]; 1-Octanol): 1.65 ± 0.024 kcal/mol | ΔSsolo ([2]; 1-Octanol): −35.1 ± 1.8 J·mol^−1·K^−1 | TΔSsolo ([2]; Buffer pH 2.0): -1.36 kcal/mol | ΔGsolo ([2]; Buffer pH 2.0): 6.36 ± 0.12 kcal/mol | ΔHsolo ([2]; Buffer pH 2.0): 5 ± 0.048 kcal/mol | ΔSsolo ([2]; Buffer pH 2.0): −19.1 ± 1.1 J·mol^−1·K^−1 | TΔSsolo ([2]; Buffer pH 7.4): -5.09 kcal/mol | ΔGsolo ([2]; Buffer pH 7.4): 7.15 ± 0.14 kcal/mol | ΔHsolo ([2]; Buffer pH 7.4): 2.03 ± 0.024 kcal/mol | ΔSsolo ([2]; Buffer pH 7.4): −71.4 ± 4.2 J·mol^−1·K^−1
